Measurements: patent US20070167427A1, “1,2,4-Triazolo[4,3-a]pyridines useful in the treatment of gastrointestinal disorders” (Altana Pharma AG, priority 2004, published 2007)

What was measured:
[1] = system: pentagastrin-stimulated acid secretion of the perfused rat stomach; experiment: Secretion-inhibiting action on the perfused rat stomach (pentagastrin-stimulated acid secretion, intraduodenal administration in vivo); conditions: anesthetized female CD rat, dose 1.0 μmol/kg i.d.
Excerpt: Testing of the Secretion-inhibiting Action on the Perfused Rat Stomach
In Table A which follows, the influence of the compounds according to the invention on the pentagastrin-stimulated acid secretion of the perfused rat stomach after intraduodenal administration in vivo is shown.
The abdomen of anesthetized rats (CD rat, female, 200-250 g; 1.5 g/kg i.m. urethane) was opened after tracheotomy by a median upper abdominal incision and a PVC catheter was fixed transorally in the esophagus and another via the pylorus such that the ends of the tubes just projected into the gastric lumen. The catheter leading from the pylorus led outward into the right abdominal wall through a side opening.
After thorough rinsing (about 50-100 ml), warm (37° C.) physiological NaCl solution was continuously passed through the stomach (0.5 ml/min, pH 6.8-6.9; Braun-Unita I). The pH (pH meter 632, glass electrode EA 147; φ=5 mm, Metrohm) and, by titration with a freshly prepared 0.01N NaOH solution to pH 7 (Dosimat 665 Metrohm), the secreted HCl were determined in the effluent in each case collected at an interval of 15 minutes.
The gastric secretion was stimulated by continuous infusion of […] (=1.65 ml/h) of i.v. pentagastrin (left femoral vein) about 30 min after the end of the operation (i.e. after determination of 2 preliminary fractions). […]

SMILES | melting point [°C] | Inhibition of acid secretion [1] [%]
CCc1cccc(C)c1CNc1cc(C(=O)OC)cn2c(C)nnc12 [Example 1, 8-(2-Ethyl-6-methyl-benzylamino)-3-methyl[1,2,4]triazolo[4,3-a]pyridine-6-carboxylic acid methyl ester] | 214.4 | –
CCc1cccc(C)c1CNc1cc(C(=O)O)cn2c(C)nnc12 [Example 2, 8-(2-Ethyl-6-methyl-benzylamino)-3-methyl[1,2,4]triazolo[4,3-a]pyridine-6-carboxylic acid] | 328.1 | –
CCc1cccc(C)c1CNc1cc(C(=O)N(C)C)cn2c(C)nnc12 [Example 3, 8-(2-Ethyl-6-methylbenzylamino)-N,N,3-trimethyl[1,2,4]triazolo[4,3-a]pyridine-6-carboxamide] | 201.3 | >30
CCc1cccc(C)c1CNc1cc(C(=O)NCCOC)cn2c(C)nnc12 [Example 4, 8-(2-Ethyl-6-methylbenzylamino)-N-(2-methoxyethyl)-3-methyl[1,2,4]triazolo-[4,3-a]pyridine-6-arboxamide] | – | >30
